Test results reported in publication PMC4620497 (Scientific Reports, 2015).

Columns and labels:
MEK1 = target: T1, MEK1 (Homo sapiens, UniProt Q02750); experiment: KINOMEscan panel screen; type: binding; details: read-out: Percent Control(%)
T1 construct: purchased DiscoveRx KINOMEscan (Ambit Biosciences)

SGK2 = target: T2, SGK2 (Homo sapiens, UniProt Q9HBY8); experiment: KINOMEscan panel screen; type: binding; details: read-out: Percent Control(%)
T2 construct: purchased DiscoveRx KINOMEscan (Ambit Biosciences)
T2 sequence (Q9HBY8 whole entry): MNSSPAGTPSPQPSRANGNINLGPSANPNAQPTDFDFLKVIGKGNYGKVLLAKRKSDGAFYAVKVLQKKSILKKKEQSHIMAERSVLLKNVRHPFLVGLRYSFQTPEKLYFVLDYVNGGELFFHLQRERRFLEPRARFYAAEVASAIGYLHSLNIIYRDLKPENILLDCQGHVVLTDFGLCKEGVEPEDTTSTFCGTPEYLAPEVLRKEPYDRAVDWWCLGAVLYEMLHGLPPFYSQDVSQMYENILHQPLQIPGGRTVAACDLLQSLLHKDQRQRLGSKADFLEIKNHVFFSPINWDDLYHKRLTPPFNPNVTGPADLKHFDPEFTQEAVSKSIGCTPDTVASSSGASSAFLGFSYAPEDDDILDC

MLK2 = target: T3, MLK2 (Homo sapiens, UniProt Q02779); experiment: KINOMEscan panel screen; type: binding; details: read-out: Percent Control(%)
T3 construct: purchased DiscoveRx KINOMEscan (Ambit Biosciences)

MAP3K2 = target: T4, MAP3K2 (Homo sapiens, UniProt Q9Y2U5); experiment: KINOMEscan panel screen; type: binding; details: read-out: Percent Control(%)
T4 construct: purchased DiscoveRx KINOMEscan (Ambit Biosciences)

ERK = experiment: KINOMEscan kinase binding assay (Kd); details: Table S1
Description: (§1) In vitro KINOMEscan kinase binding assays (Ambit Biosciences) were employed to determine the binding affinity (Kd) of compounds[41][42].
(§2) compound 1. The y have very similar spectrum of activity in enz ymatic and cellular
(§3) levels. Both of them have the ability to inhibit Wnt/β -catenin si gnalin g. However, in […]

PAK1 = PAK1 (Homo sapiens, UniProt Q13153); experiment: KINOMEscan kinase binding assay (Kd); details: Table S1
Description: as §1, §2, §3

PAK2 [1] = target: T5, PAK2 (Homo sapiens, UniProt Q13177); experiment: KINOMEscan kinase binding assay (Kd); details: Table S1
T5 construct: purchased DiscoveRx KINOMEscan (Ambit Biosciences)
T5 sequence (Q13177 whole entry): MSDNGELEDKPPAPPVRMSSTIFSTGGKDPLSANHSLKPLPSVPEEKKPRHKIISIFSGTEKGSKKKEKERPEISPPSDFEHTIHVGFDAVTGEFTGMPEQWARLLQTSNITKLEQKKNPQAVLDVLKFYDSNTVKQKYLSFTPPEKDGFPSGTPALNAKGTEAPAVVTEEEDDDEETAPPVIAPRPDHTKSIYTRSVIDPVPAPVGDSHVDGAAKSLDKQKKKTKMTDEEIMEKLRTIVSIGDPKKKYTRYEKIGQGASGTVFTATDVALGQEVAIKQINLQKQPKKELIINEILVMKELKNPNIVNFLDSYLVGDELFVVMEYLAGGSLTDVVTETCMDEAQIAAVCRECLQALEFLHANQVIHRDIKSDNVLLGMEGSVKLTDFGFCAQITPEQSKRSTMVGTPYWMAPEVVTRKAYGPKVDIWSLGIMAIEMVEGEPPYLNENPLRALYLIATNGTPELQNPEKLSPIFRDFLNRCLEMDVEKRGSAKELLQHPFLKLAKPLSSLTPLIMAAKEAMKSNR
Description: as §1, §2, §3

CLK4 = target: T6, CLK4 (Homo sapiens, UniProt Q9HAZ1); experiment: KINOMEscan panel screen; type: binding; details: read-out: Percent Control(%)
T6 construct: purchased DiscoveRx KINOMEscan (Ambit Biosciences)
T6 sequence (Q9HAZ1 whole entry): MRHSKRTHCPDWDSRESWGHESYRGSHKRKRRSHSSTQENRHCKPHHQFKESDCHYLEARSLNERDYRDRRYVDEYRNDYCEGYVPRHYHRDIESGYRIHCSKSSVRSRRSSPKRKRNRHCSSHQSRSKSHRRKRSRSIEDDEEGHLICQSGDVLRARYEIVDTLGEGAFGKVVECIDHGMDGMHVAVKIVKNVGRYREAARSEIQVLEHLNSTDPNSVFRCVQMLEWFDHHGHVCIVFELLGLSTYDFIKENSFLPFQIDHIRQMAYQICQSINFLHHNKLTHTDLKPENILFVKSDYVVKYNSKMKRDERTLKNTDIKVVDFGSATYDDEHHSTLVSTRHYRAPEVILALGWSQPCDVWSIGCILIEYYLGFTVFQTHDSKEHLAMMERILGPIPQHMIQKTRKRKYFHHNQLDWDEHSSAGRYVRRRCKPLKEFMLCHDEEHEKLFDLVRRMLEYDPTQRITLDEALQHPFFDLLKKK

EPHB2 = target: T7, EPHB2 (Homo sapiens, UniProt P29323); experiment: KINOMEscan panel screen; type: binding; details: read-out: Percent Control(%)
T7 construct: purchased DiscoveRx KINOMEscan (Ambit Biosciences)
T7 sequence (P29323 19-1055): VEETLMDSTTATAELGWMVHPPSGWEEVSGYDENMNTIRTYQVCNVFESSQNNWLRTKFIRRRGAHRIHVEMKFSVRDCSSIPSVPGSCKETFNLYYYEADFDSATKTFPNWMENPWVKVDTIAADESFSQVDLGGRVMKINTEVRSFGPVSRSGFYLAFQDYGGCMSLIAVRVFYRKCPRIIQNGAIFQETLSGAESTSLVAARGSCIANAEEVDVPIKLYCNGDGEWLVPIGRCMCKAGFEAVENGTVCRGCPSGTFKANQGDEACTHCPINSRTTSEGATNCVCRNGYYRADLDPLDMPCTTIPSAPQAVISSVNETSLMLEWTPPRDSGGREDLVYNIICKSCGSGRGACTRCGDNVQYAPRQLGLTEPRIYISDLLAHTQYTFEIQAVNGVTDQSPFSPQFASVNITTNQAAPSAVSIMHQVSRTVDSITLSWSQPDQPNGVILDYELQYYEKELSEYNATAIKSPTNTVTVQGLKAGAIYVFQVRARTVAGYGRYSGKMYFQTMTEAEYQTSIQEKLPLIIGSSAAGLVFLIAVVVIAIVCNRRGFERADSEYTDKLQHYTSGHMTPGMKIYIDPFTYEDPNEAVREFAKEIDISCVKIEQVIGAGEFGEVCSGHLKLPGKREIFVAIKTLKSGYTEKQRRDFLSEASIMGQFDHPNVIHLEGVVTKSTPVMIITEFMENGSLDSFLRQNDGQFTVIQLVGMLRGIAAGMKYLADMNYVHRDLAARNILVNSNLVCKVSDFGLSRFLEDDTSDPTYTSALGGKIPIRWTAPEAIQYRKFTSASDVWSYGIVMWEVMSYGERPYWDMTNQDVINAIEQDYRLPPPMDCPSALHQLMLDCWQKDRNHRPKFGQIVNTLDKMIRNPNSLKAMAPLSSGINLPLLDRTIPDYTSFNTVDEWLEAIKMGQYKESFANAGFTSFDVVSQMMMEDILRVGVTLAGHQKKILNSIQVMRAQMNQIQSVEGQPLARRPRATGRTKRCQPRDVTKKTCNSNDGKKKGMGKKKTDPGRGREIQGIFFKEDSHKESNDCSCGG

FLT3-D835H = FLT3-D835H (Homo sapiens, UniProt P36888, D835H); experiment: KINOMEscan panel screen; type: binding; set-up: purchased DiscoveRx KINOMEscan (Ambit Biosciences); details: read-out: Percent Control(%)
BTK = BTK (Homo sapiens, UniProt Q06187); experiment: KINOMEscan kinase binding assay (Kd)
MRCKB = target: T8, MRCKB (Homo sapiens, UniProt Q9Y5S2); experiment: KINOMEscan panel screen; type: binding; details: read-out: Percent Control(%)
T8 construct: purchased DiscoveRx KINOMEscan (Ambit Biosciences)

EPHA2 = target: T9, EPHA2 (Homo sapiens, UniProt P29317); experiment: KINOMEscan panel screen; type: binding; details: read-out: Percent Control(%)
T9 construct: purchased DiscoveRx KINOMEscan (Ambit Biosciences)

IKK-epsilon = target: T10, IKK-epsilon (Homo sapiens, UniProt Q14164); experiment: KINOMEscan panel screen; type: binding; details: read-out: Percent Control(%)
T10 construct: purchased DiscoveRx KINOMEscan (Ambit Biosciences)
T10 sequence (Q14164 whole entry): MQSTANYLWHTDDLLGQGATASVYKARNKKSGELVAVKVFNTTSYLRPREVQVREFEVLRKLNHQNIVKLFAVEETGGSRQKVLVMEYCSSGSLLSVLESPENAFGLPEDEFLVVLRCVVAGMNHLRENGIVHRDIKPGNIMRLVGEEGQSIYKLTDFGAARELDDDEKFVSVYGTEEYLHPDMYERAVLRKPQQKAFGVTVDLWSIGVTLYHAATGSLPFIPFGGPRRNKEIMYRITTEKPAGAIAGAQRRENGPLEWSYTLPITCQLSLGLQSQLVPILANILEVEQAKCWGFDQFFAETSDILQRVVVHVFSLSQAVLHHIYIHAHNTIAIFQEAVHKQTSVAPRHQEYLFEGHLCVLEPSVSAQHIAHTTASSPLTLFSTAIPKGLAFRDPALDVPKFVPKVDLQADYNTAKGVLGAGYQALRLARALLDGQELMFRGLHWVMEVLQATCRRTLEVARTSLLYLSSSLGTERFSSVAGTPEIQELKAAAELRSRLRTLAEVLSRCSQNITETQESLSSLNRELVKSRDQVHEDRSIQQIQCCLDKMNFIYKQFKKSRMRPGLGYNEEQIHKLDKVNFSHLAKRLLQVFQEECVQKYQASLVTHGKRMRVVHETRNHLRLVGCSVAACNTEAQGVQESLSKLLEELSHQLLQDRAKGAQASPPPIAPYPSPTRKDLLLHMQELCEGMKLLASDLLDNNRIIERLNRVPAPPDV

DMPK2 = target: T11, DMPK2 (Homo sapiens, UniProt Q6DT37); experiment: KINOMEscan panel screen; type: binding; details: read-out: Percent Control(%)
T11 construct: purchased DiscoveRx KINOMEscan (Ambit Biosciences)

MET [2] = target: T12, MET (Homo sapiens, UniProt P08581); experiment: KINOMEscan kinase binding assay (Kd)
T12 construct: purchased DiscoveRx KINOMEscan (Ambit Biosciences)
T12 sequence (P08581 25-1390): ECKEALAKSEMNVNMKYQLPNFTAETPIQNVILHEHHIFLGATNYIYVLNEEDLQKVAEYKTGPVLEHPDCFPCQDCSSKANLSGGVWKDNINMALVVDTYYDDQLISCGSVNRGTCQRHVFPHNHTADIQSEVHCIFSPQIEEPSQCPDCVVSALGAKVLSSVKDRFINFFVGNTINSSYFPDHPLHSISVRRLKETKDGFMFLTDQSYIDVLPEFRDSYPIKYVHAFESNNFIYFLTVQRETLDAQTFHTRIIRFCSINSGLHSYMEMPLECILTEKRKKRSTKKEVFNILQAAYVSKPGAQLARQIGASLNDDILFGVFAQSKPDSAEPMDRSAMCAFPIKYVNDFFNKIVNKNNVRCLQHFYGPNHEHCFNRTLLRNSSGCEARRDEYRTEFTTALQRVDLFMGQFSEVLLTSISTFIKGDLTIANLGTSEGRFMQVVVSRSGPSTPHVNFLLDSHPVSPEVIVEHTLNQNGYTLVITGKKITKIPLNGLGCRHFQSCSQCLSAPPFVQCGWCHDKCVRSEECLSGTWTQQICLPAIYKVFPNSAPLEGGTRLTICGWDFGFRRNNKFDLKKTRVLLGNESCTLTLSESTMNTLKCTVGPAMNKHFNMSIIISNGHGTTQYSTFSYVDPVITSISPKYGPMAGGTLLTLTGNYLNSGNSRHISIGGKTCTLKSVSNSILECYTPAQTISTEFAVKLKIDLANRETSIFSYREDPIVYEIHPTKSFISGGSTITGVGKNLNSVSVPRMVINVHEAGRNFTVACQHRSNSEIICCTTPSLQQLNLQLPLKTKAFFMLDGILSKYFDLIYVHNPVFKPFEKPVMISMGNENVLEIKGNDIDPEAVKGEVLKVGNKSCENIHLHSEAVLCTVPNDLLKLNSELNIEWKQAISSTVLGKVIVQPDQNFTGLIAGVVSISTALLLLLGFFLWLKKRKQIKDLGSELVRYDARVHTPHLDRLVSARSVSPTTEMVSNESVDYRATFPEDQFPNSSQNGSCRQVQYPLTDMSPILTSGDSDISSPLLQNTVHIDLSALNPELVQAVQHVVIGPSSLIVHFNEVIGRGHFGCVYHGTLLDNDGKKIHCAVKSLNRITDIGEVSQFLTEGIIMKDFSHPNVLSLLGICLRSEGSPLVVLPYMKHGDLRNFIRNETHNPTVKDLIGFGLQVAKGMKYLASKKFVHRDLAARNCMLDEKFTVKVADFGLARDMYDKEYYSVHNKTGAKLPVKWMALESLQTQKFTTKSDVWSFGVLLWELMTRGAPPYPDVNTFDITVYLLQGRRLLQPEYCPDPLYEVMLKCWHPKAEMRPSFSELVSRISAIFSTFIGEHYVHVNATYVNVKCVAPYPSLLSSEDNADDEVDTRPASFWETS

HUNK = target: T13, HUNK (Homo sapiens, UniProt P57058); experiment: KINOMEscan panel screen; type: binding; details: read-out: Percent Control(%)
T13 construct: purchased DiscoveRx KINOMEscan (Ambit Biosciences)

PKAC-alpha = target: T14, PKAC-alpha (Homo sapiens, UniProt P17612); experiment: KINOMEscan panel screen; type: binding; details: read-out: Percent Control(%)
T14 construct: purchased DiscoveRx KINOMEscan (Ambit Biosciences)

EPHA7 = target: T15, EPHA7 (Homo sapiens, UniProt Q15375); experiment: KINOMEscan panel screen; type: binding; details: read-out: Percent Control(%)
T15 construct: purchased DiscoveRx KINOMEscan (Ambit Biosciences)

MET [3] = target: T12, MET; experiment: KINOMEscan panel screen; type: binding; details: read-out: Percent Control(%)
EPHA4 = target: T16, EPHA4 (Homo sapiens, UniProt P54764); experiment: KINOMEscan panel screen; type: binding; details: read-out: Percent Control(%)
T16 construct: purchased DiscoveRx KINOMEscan (Ambit Biosciences)

normal PBMCs = experiment: CellTiterGlo viability assay, normal PBMCs; type: cell-based, human; details: 72 h
Description: The patients’ information is listed in Supplementary Table S5. For comparison, three normal PB samples were also collected (sample #7, #8, #9). Peripheral blood mononuclear cells (PBMCs) were isolated from each sample in the following assays.
Methods used in this study were approved by the Ethics Committee of the West China Hospital. Informed consent for the use of human AML and normal peripheral blood (PB) samples for the present study was obtained from all patients according to the Declaration of Helsinki.
Effects of compounds on the PBMC viability were examined using CellTiterGlo (Promega) assays. […] The signal from the viable cells was assessed according to the manufacturer’s protocol.

HASPIN = target: T17, HASPIN (Homo sapiens, UniProt Q8TF76); experiment: KINOMEscan panel screen; type: binding; details: read-out: Percent Control(%)
T17 construct: purchased DiscoveRx KINOMEscan (Ambit Biosciences)

FYN = target: T18, FYN (Homo sapiens, UniProt P06241); experiment: KINOMEscan panel screen; type: binding; details: read-out: Percent Control(%)
T18 construct: purchased DiscoveRx KINOMEscan (Ambit Biosciences)

PIK3C2B = target: T19, PIK3C2B (Homo sapiens, UniProt O00750); experiment: KINOMEscan panel screen; type: binding; details: read-out: Percent Control(%)
T19 construct: purchased DiscoveRx KINOMEscan (Ambit Biosciences)

MELK = target: T20, MELK (Homo sapiens, UniProt Q14680); experiment: KINOMEscan panel screen; type: binding; details: read-out: Percent Control(%)
T20 construct: purchased DiscoveRx KINOMEscan (Ambit Biosciences)

KIT(A829P) = target: T21, KIT(A829P) (Homo sapiens, UniProt P10721, A829P); experiment: KINOMEscan panel screen; type: binding; details: read-out: Percent Control(%)
T21 construct: purchased DiscoveRx KINOMEscan (Ambit Biosciences)

YANK3 = target: T22, YANK3 (Homo sapiens, UniProt Q86UX6); experiment: KINOMEscan panel screen; type: binding; details: read-out: Percent Control(%)
T22 construct: purchased DiscoveRx KINOMEscan (Ambit Biosciences)
T22 sequence (Q86UX6 whole entry): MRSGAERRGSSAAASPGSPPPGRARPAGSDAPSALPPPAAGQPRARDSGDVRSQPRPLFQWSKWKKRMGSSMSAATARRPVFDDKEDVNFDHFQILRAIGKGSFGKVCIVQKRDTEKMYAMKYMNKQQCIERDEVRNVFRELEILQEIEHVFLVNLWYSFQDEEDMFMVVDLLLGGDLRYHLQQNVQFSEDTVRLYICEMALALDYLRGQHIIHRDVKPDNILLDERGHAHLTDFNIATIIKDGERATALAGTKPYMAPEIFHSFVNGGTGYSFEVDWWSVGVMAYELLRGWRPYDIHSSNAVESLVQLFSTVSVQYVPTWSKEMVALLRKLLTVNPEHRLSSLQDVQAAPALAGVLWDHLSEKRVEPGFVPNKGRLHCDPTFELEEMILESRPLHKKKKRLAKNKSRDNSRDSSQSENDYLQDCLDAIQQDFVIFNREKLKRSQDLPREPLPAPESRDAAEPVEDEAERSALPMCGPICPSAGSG

PAK2 [4] = target: T5, PAK2; experiment: KINOMEscan panel screen; type: binding; details: read-out: Percent Control(%)
GSK3A = target: T23, GSK3A (Homo sapiens, UniProt P49840); experiment: KINOMEscan panel screen; type: binding; details: read-out: Percent Control(%)
T23 construct: purchased DiscoveRx KINOMEscan (Ambit Biosciences)

PAK6 = target: T24, PAK6 (Homo sapiens, UniProt Q9NQU5); experiment: KINOMEscan panel screen; type: binding; details: read-out: Percent Control(%)
T24 construct: purchased DiscoveRx KINOMEscan (Ambit Biosciences)

ULK1 = target: T25, ULK1 (Homo sapiens, UniProt O75385); experiment: KINOMEscan panel screen; type: binding; details: read-out: Percent Control(%)
T25 construct: purchased DiscoveRx KINOMEscan (Ambit Biosciences)

SMILES: CC(C)(C)c1cc(NC(=O)Nc2ccc(Oc3ncnc4[nH]ncc34)c(F)c2)no1 [SKLB-677, 1-(4-(1H-pyrazolo[3,4-d]pyrimidin-4-yloxy)-3-fluorophenyl)-3-(5-tert-butylisoxazol-3-yl)urea]
- remaining binding at 10 µM (MEK1): 7.2%
- remaining binding at 10 µM (SGK2): 78%
- remaining binding at 10 µM (MLK2): 99%
- remaining binding at 10 µM (MAP3K2): 100%
- Kd (ERK): > 10 µM
- Kd (PAK1): > 10 µM
- Kd (PAK2 [1]): > 10 µM
- remaining binding at 10 µM (CLK4): 9.6%
- remaining binding at 10 µM (EPHB2): 5.2%
- remaining binding at 10 µM (FLT3-D835H): 0%
- Kd (BTK): > 10 µM
- remaining binding at 10 µM (MRCKB): 90%
- remaining binding at 10 µM (EPHA2): 1.2%
- remaining binding at 10 µM (IKK-epsilon): 55%
- remaining binding at 10 µM (DMPK2): 50%
- Kd (MET [2]): 0.22 µM
- remaining binding at 10 µM (HUNK): 80%
- remaining binding at 10 µM (PKAC-alpha): 31%
- remaining binding at 10 µM (EPHA7): 0%
- remaining binding at 10 µM (MET [3]): 0.05%
- remaining binding at 10 µM (EPHA4): 4.8%
- IC50 (normal PBMCs; Homo sapiens, PBMC, sample #7, normal PBMCs): > 10 µM
- IC50 (normal PBMCs; sample #8, normal PBMCs): > 10 µM
- IC50 (normal PBMCs; sample #9, normal PBMCs): > 10 µM
- remaining binding at 10 µM (HASPIN): 42%
- remaining binding at 10 µM (FYN): 15%
- remaining binding at 10 µM (PIK3C2B): 100%
- remaining binding at 10 µM (MELK): 56%
- remaining binding at 10 µM (KIT(A829P)): 15%
- remaining binding at 10 µM (YANK3): 97%
- remaining binding at 10 µM (PAK2 [4]): 79%
- remaining binding at 10 µM (GSK3A): 30%
- remaining binding at 10 µM (PAK6): 90%
- remaining binding at 10 µM (ULK1): 70%
